Key:
Experiment in all cases: relative viability (nuclei count vs DMSO), 5 days (fraction); higher = more cells survive
ABC-1 = system: ABC-1
Summary of the method: (§1)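 Lung cancer cell lines in 1536-well plates got either a single drug or a fixed anchor-drug dose together with five library-drug doses (not always all listed) in √10 steps, by pin tool, on the day after seeding. Nuclei were counted after 5 days, and relative viability is the treated-to-vehicle ratio of nuclei counts. Values are medians of duplicate plates.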

NCI-H2009 = system: NCI-H2009
Summary of the method: as §1

SK-MES-1 = system: SK-MES-1
Summary of the method: as §1

NCI-H1993 = system: NCI-H1993
Summary of the method: as §1

NCI-H596 = system: NCI-H596
Summary of the method: as §1

SK-LU-1 = system: SK-LU-1
Summary of the method: as §1

LK-2 = system: LK-2
Summary of the method: as §1

NCI-H2228 = system: NCI-H2228
Summary of the method: as §1

NCI-H2170 = system: NCI-H2170
Summary of the method: as §1

NCI-H1793 = system: NCI-H1793
Summary of the method: as §1

A-427 = system: A-427
Summary of the method: as §1

NCI-H1944 = system: NCI-H1944
Summary of the method: as §1

SW 1573 = system: SW 1573
Summary of the method: as §1

NCI-H727 = system: NCI-H727
Summary of the method: as §1

COR-L23 = system: COR-L23
Summary of the method: as §1

HARA = system: HARA
Summary of the method: as §1

HOP-62 = system: HOP-62
Summary of the method: as §1

SW 900 = system: SW 900
Summary of the method: as §1

NCI-H3122 = system: NCI-H3122
Summary of the method: as §1

EMC-BAC-2 = system: EMC-BAC-2
Summary of the method: as §1

PC-3 [JPC-3] = system: PC-3 [JPC-3]
Summary of the method: as §1

LXF-289 = system: LXF-289
Summary of the method: as §1

NC(=O)Nc1cc(-c2cccc(F)c2)sc1C(=O)N[C@H]1CCCNC1 [AZD7762] + Cc1cc(Nc2cc(N3CCN(C)CC3)nc(Sc3ccc(NC(=O)C4CC4)cc3)n2)n[nH]1 [Tozasertib] (partner 0.1 µM)
relative viability (ABC-1; first compound 0.01 µM): 0.18
relative viability (ABC-1; first compound 0.03162 µM): 0.178
relative viability (ABC-1; first compound 0.1 µM): 0.16
relative viability (ABC-1; first compound 0.3162 µM): 0.115
relative viability (ABC-1; first compound 1 µM): 0.111
relative viability (NCI-H2009; first compound 0.01 µM): 0.857
relative viability (NCI-H2009; first compound 0.03162 µM): 0.703
relative viability (NCI-H2009; first compound 0.1 µM): 0.688
relative viability (NCI-H2009; first compound 0.3162 µM): 0.543
relative viability (NCI-H2009; first compound 1 µM): 0.384
relative viability (SK-MES-1; first compound 0.01 µM): 0.936
relative viability (SK-MES-1; first compound 0.03162 µM): 0.865
relative viability (SK-MES-1; first compound 0.1 µM): 0.798
relative viability (SK-MES-1; first compound 0.3162 µM): 0.262
relative viability (SK-MES-1; first compound 1 µM): 0.129
relative viability (NCI-H1993; first compound 0.01 µM): 0.654
relative viability (NCI-H1993; first compound 0.03162 µM): 0.579
relative viability (NCI-H1993; first compound 0.1 µM): 0.628
relative viability (NCI-H1993; first compound 0.3162 µM): 0.641
relative viability (NCI-H1993; first compound 1 µM): 0.547
relative viability (NCI-H596; first compound 0.01 µM): 0.978
relative viability (NCI-H596; first compound 0.03162 µM): 0.83
relative viability (NCI-H596; first compound 0.1 µM): 0.847
relative viability (NCI-H596; first compound 0.3162 µM): 0.946
relative viability (NCI-H596; first compound 1 µM): 0.793
relative viability (SK-LU-1; first compound 0.01 µM): 0.374
relative viability (SK-LU-1; first compound 0.03162 µM): 0.246
relative viability (SK-LU-1; first compound 0.1 µM): 0.17
relative viability (SK-LU-1; first compound 0.3162 µM): 0.128
relative viability (SK-LU-1; first compound 1 µM): 0.142
relative viability (LK-2; first compound 0.01 µM): 0.194
relative viability (LK-2; first compound 0.03162 µM): 0.186
relative viability (LK-2; first compound 0.1 µM): 0.195
relative viability (LK-2; first compound 0.3162 µM): 0.156
relative viability (LK-2; first compound 1 µM): 0.165
relative viability (NCI-H2228; first compound 0.01 µM): 0.274
relative viability (NCI-H2228; first compound 0.03162 µM): 0.464
relative viability (NCI-H2228; first compound 0.1 µM): 0.321
relative viability (NCI-H2228; first compound 0.3162 µM): 0.245
relative viability (NCI-H2228; first compound 1 µM): 0.121
relative viability (NCI-H2170; first compound 0.01 µM): 0.781
relative viability (NCI-H2170; first compound 0.03162 µM): 0.726
relative viability (NCI-H2170; first compound 0.1 µM): 0.697
relative viability (NCI-H2170; first compound 0.3162 µM): 0.788
relative viability (NCI-H2170; first compound 1 µM): 0.726
relative viability (NCI-H1793; first compound 0.01 µM): 0.395
relative viability (NCI-H1793; first compound 0.03162 µM): 0.403
relative viability (NCI-H1793; first compound 0.1 µM): 0.314
relative viability (NCI-H1793; first compound 0.3162 µM): 0.374
relative viability (NCI-H1793; first compound 1 µM): 0.198
relative viability (A-427; first compound 0.01 µM): 0.215
relative viability (A-427; first compound 0.03162 µM): 0.218
relative viability (A-427; first compound 0.1 µM): 0.207
relative viability (A-427; first compound 0.3162 µM): 0.179
relative viability (A-427; first compound 1 µM): 0.175
relative viability (NCI-H1944; first compound 0.01 µM): 0.253
relative viability (NCI-H1944; first compound 0.03162 µM): 0.257
relative viability (NCI-H1944; first compound 0.1 µM): 0.285
relative viability (NCI-H1944; first compound 0.3162 µM): 0.301
relative viability (NCI-H1944; first compound 1 µM): 0.248
relative viability (SW 1573; first compound 0.01 µM): 0.225
relative viability (SW 1573; first compound 0.03162 µM): 0.186
relative viability (SW 1573; first compound 0.1 µM): 0.153
relative viability (SW 1573; first compound 0.3162 µM): 0.15
relative viability (SW 1573; first compound 1 µM): 0.117
relative viability (NCI-H727; first compound 0.01 µM): 0.662
relative viability (NCI-H727; first compound 0.03162 µM): 0.619
relative viability (NCI-H727; first compound 0.1 µM): 0.525
relative viability (NCI-H727; first compound 0.3162 µM): 0.596
relative viability (NCI-H727; first compound 1 µM): 0.35
relative viability (COR-L23; first compound 0.01 µM): 0.198
relative viability (COR-L23; first compound 0.03162 µM): 0.229
relative viability (COR-L23; first compound 0.1 µM): 0.193
relative viability (COR-L23; first compound 0.3162 µM): 0.17
relative viability (COR-L23; first compound 1 µM): 0.0829
relative viability (HARA; first compound 0.01 µM): 0.113
relative viability (HARA; first compound 0.03162 µM): 0.107
relative viability (HARA; first compound 0.1 µM): 0.12
relative viability (HARA; first compound 0.3162 µM): 0.103
relative viability (HARA; first compound 1 µM): 0.0534
relative viability (HOP-62; first compound 0.01 µM): 0.439
relative viability (HOP-62; first compound 0.03162 µM): 0.376
relative viability (HOP-62; first compound 0.1 µM): 0.378
relative viability (HOP-62; first compound 0.3162 µM): 0.339
relative viability (HOP-62; first compound 1 µM): 0.219
relative viability (SW 900; first compound 0.01 µM): 0.713
relative viability (SW 900; first compound 0.03162 µM): 0.536
relative viability (SW 900; first compound 0.1 µM): 0.743
relative viability (SW 900; first compound 0.3162 µM): 0.663
relative viability (SW 900; first compound 1 µM): 0.403
relative viability (NCI-H3122; first compound 0.01 µM): 0.475
relative viability (NCI-H3122; first compound 0.03162 µM): 0.412
relative viability (NCI-H3122; first compound 0.1 µM): 0.402
relative viability (NCI-H3122; first compound 0.3162 µM): 0.278
relative viability (NCI-H3122; first compound 1 µM): 0.156
relative viability (EMC-BAC-2; first compound 0.01 µM): 0.295
relative viability (EMC-BAC-2; first compound 0.03162 µM): 0.302
relative viability (EMC-BAC-2; first compound 0.1 µM): 0.326
relative viability (EMC-BAC-2; first compound 0.3162 µM): 0.321
relative viability (EMC-BAC-2; first compound 1 µM): 0.282
relative viability (PC-3 [JPC-3]; first compound 0.01 µM): 0.859
relative viability (PC-3 [JPC-3]; first compound 0.03162 µM): 0.891
relative viability (PC-3 [JPC-3]; first compound 0.1 µM): 0.836
relative viability (PC-3 [JPC-3]; first compound 0.3162 µM): 0.873
relative viability (PC-3 [JPC-3]; first compound 1 µM): 0.85
relative viability (LXF-289; first compound 0.01 µM): 0.215
relative viability (LXF-289; first compound 0.03162 µM): 0.203
relative viability (LXF-289; first compound 0.1 µM): 0.196
relative viability (LXF-289; first compound 0.3162 µM): 0.174
relative viability (LXF-289; first compound 1 µM): 0.188

Source: the supplement of paper PMC10307832
